2 molecules from patent US20200023001A1, “GlycoFix (Structurally And Functionally Repaired Endothelial Glycocalyx)” (Northeastern University, priority 2018, published 2020) can be followed below.

Common to all, as to type: cell-based, rat
Assay [1] deals with heparan sulfate (HS) of RFPEC glycocalyx. Put plainly: HS expression (coverage) in RFPEC glycocalyx by immunofluorescence confocal microscopy (Example 1). How it is done: (§1) Cell Culture. Rat fat pad ECs (RFPEC) at passages 20 to 39 were offspring of cells isolated from rat epididymal fat pad and provided by Dr. Mia Thi of Albert Einstein College of Medicine (Bronx, N.Y.). […] The RFPECs are immortalized, making it possible to use late passages. RFPEC were seeded on 12-14-mm diameter and 0.13-0.17-mm thick glass coverslips at a seeding density of 15,000-20,000 cells/cm^2. Cells were cultured in Dulbecco's Modified Eagle Medium (DMEM, Invitrogen, USA) with 1% penicillin-streptomycin (PS) and 10% fetal bovine serum (FBS, Gibco Life Technologies). Cells were maintained in humidity at 37° C. and 5% CO2. RFPECs reached full confluence in 3 days.
(§2) Cultured RFPECs produce thick and robust GCX in this time period. At 3 days post-seeding the RFPECs' culture medium was supplemented with 1% BSA in place of FBS to stabilize the GCX during preservation and immunolabeling (described below). For enzyme treatment experiments, 25 micro-international units per milliliter (μIU/ml) of heparinase III (Hep III; IBEX, Canada) were added to BSA-containing culture media for 2 hours to degrade HS from the GCX [46]. HepIII was washed out, and the wash-out was followed by a 16-hour incubation of RFPECs in regular BSA-containing media. In self-recovery experiments, RFPEC GCX was left to recover for 24 hours after enzyme degradation. The time frame was chosen in accordance with the 20-hour time period that is required for HS restoration to occur on the surface of ECs. For HS recovery experiments, exogenous HS and/or S1P were applied for 16 hours to accommodate the communication test as an assessment of functional glycocalyx recovery. […] After HS was degraded with HepIII, it was replaced by a 16-hour feeding of RFPECs with 59 μg/ml exogenous porcine mucosal HS (Celsus, Cincinnati, Ohio), based on published serum concentration of HS [43]. In sphingosine-1-phosphate experiments, culture media containing enzyme was substituted for media containing either 10 μM of S1P (Sigma-Aldrich) or a combination of 59 μg/ml of HS and 10 μM of S1P for 16 hours after enzyme degradation.
Immunostaining. RFPECs have high affinity to most antibodies that are available for performing immunocytochemistry. For heparan sulfate (HS), RFPEC monolayers were treated with 2% paraformaldehyde/1% glutaraldehyde in phosphate buffered saline (PBS) for fixation, treated with 2% goat serum in PBS to block non-specific ligands, and stained for three nights at 4° C. with a 1:100 10E4-epitope HS antibody (Amsbio).
As specified by the manufacturer, the HS antibody reacts with many types of heparan sulfate. The reactivity of the HS antibody is abolished after treatment with Hep III, indicating antibody specificity. […]

For assay [2], the system named is Cx-containing gap junctions of RFPEC. Briefly: Lucifer Yellow scratch-loading dye transfer assay (gap junction communication). The procedure:
as §1, §2
Dye transfer assay, fluorescence microscopy and image analysis. Gap junction functionality was assessed by loading Lucifer Yellow in RFPECs, using a scratch technique, and observing the extent of Lucifer Yellow transfer from loaded cells to neighboring cells (FIG. 7B). Lucifer Yellow has a molecular weight of 457.3 and can only enter cells via broken membranes or via gap junctions. The scratch loading technique involved pre-incubation of RFPECs (for 1 minute) with calcium- and magnesium-free Hanks' Balanced Salt Solution (HBSS; Life Technology) containing 5 mg/ml Lucifer Yellow dye (Life Technology). A 5-μm diameter tip scribe (Ted Pella, Inc, USA) was then used to carefully create a straight scratch in the RFPEC monolayer and to allow the dye to enter the scratched cells. After the dye was loaded, it spread via open gap junctions to adjacent intact cells, with the extent of Lucifer Yellow spread reaching a plateau by 10 minutes after loading. At that point, excess dye was washed out and RFPECs were imaged at 10× magnification (dry objective) using a Zeiss Observer Z1 fluorescence microscope. From recorded images of dye transfer after scratch loading, ImageJ randomly selected dye spread locations that would be quantified along the scratch. At those random locations, lines perpendicular to the scratch axis were drawn, and the intact fluorescent cells (scratched cells excluded) were counted. […]

A further assay deals with Cx43 at RFPEC borders. Briefly: Cx43 expression at EC borders, immunostaining and confocal microscopy. The procedure: as §1, §2
As specified by the manufacturer, the HS antibody reacts with many types of heparan sulfate. The reactivity of the HS antibody is abolished after treatment with Hep III, indicating antibody specificity. For secondary detection of HS, Alexa Flour 488 conjugated goat anti-mouse IgG/IgM (H+L; Life Technologies) secondary antibody was used. RFPECs to be processed for connexin 43 (Cx43) were fixed in 4% paraformaldehyde, permeabilized in 0.2% Triton X-100 (Fisher), and blocked in 5% goat serum combined with 0.2% Triton X-100. Connexin 43 staining was performed overnight at 4° C. with 1:100 mouse monoclonal Cx43 antibody (Millipore). […] Secondary Cx43 detection was done with Alexa Flour 488 conjugated goat anti-mouse IgG. […] These controls confirmed that the staining observed in the RFPECs is not an artefact.
Confocal immunofluorescence microscopy imaging and analysis. Alexa Fluor 488 fluorescent RFPECs were mounted with Vectashield containing DAPI (Vector Labs) and imaged with a Zeiss LSM 700 laser scanning confocal microscope. HS and Cx43 were imaged at 63× magnification (oil objective) and 40× magnification (oil objective), respectively. Lasers with excitation wavelengths of 490 nm (for HS or Cx43) and 350 nm (for DAPI) were used to obtain XY-plane slices. Laser gain and transmission were kept below fluorophore saturation levels. Confocal slice intervals were 0.2 μm for HS and 0.7 μm for Cx43. […]

Setting [3] is: RFPEC, Hep III, then 16 h with or without 59 μg/ml HS and/or 10 μM S1P, mean±SEM.
Setting [4] is: after Hep III, HS 59 μg/ml, S1P 10 μM.

SMILES strings stand for the structures.

Regarding `CCCCCCCCCCCCC/C=C/[C@@H](O)[C@@H](N)COP(=O)(O)O` [S1P, sphingosine-1-phosphate], the “HS expression in GCX, result in words (FIG. 2 legend)” value in assay [1] (25 μIU/ml Hep III, HS 59 μg/ml, S1P 10 μM) is “significantly recovered the expression of HS in GCX, back to baseline conditions”. The “HS coverage of cell surfaces” value in assay [1] (RFPEC, Hep III 2 hours, probed 16 hours after, with or without 59 μg/ml exogenous HS and/or 10 μM S1P for the 16 hours, mean±SEM) stood at 71.97±5.02%. Further, the “Lucifer Yellow dye spread, neighboring cells receiving dye per scratch-loaded cell” value in assay [2] (setting [3]) came out at 2.06±0.08 cells. The “Lucifer Yellow dye transfer, result in words (FIG. 4 legend)” value in assay [2] (setting [4]) is “did not improve cell-to-cell communication”. The “Cx43 distribution along the perimeter of the cells” value with Cx43 at RFPEC borders (setting [3]) is given as 34.81±5.16%. Besides, the “Cx43 distribution/expression, result in words (FIG. 3 legend)” value in the assay on Cx43 at RFPEC borders (setting [4]) is on record as “did not show a significant restoration of Cx43 expression”.
With `C=C1[C@@H](C)[C@H]2[C@H](Cc3ccccc3)NC(=O)[C@]23[C@H](OC(C)=O)/C=C/[C@@](C)(O)C(=O)[C@@H](C)C/C=C/[C@H]3[C@@H]1O` [cytochalasin D], the “effect of actin disruption on cell-to-cell movement of Lucifer Yellow dye” value in assay [2] (preliminary studies, data not shown) is “bars cell-to-cell movement of Lucifer Yellow dye”.
